Experimental data from patent US7291627B2, “Dihydroimidazo[5.1-a]-beta-carboline derivatives, method for their preparation, and their application as a drug” (MACEF, priority 2001, dated 2007).

Tested on: JA 657 chicks
Experiment: Chick sleep/sedation test (IM injection, 90 minute observation)
Format: in vivo
Details: for Sed (sedation time as % of the period) / TA (time to torpor between injection and first stage of sleep) / TS (duration of the first sleep) / Tsed (total sedation time over the period): 90 min observation; for TS (mins) Placebo diff'ce: extension of first sleep compared with test controls
Experimental: The dihydroimidazo[5,1-a]-β-carboline derivatives of the invention, in particular those in the form of the methyl sulfonate, (soluble), were tested in chicks, and certain compounds that were active in the chick were administered in single doses to six Beagle dogs of both sexes for a polysomnographic study of at least 4 hours duration.
JA 657 chicks from Couvoir Gauguet, 44 Le Pin, were accustomed for at least 6 days to an alternating program of light and darkness with 12 hours of daylight and 12 hours of darkness at a regulated temperature of 25±2° C. They were fed ad libitum and were placed under test compounds in a vivarium in groups of 3 individuals with a mean weight of 100±10 g on the day of the test. At that age in this species, there is no effective meningeal (hemato-encephalic) barrier. The test products were injected in 3 doses (1, 3 and 10 mg/kg) intramuscularly (IM) in solution or in an aqueous suspension (1 drop of Tween 80 per ml), each to two batches of 3 chicks which were observed over 90 minutes. For each test series (18 vivaria), there was at least one batch of negative control chicks receiving the same volume (0.2 ml IM) of water for injectable preparations.
During the 90 minute observation period, the chicks were strongly stimulated every 15 minutes by presenting a full feeding trough, and each 5 minute period was given a grade from among the following 5 states, corresponding to the state of alertness over that period:
Mobile, sitting alert, drowsy, asleep, sleep-like state. The parameters studied were the time to torpor (TA) passed between injection and the first stage of sleep, the duration of the first sleep (TS) and the total sedation time over the period (Tsed), expressed in minutes and as a % of the period (Sed).
To compare the results of tests carried out at different dates, the extension of the duration of the first sleep TS compared with the test controls was recorded.

Compound	Sed (sedation time as % of the period) (Dose: 1 mg/kg)	TA (time to torpor between injection and first stage of sleep) (Dose: 1 mg/kg)	TS (duration of the first sleep) (Dose: 1 mg/kg)	Tsed (total sedation time over the period) (Dose: 1 mg/kg)	TS (mins) Placebo diff'ce (Dose: 1 mg/kg)	Sed (sedation time as % of the period) (Dose: 3 mg/kg)	TA (time to torpor between injection and first stage of sleep) (Dose: 3 mg/kg)	TS (duration of the first sleep) (Dose: 3 mg/kg)	Tsed (total sedation time over the period) (Dose: 3 mg/kg)	TS (mins) Placebo diff'ce (Dose: 3 mg/kg)	Sed (sedation time as % of the period) (Dose: 10 mg/kg)	TA (time to torpor between injection and first stage of sleep) (Dose: 10 mg/kg)	TS (duration of the first sleep) (Dose: 10 mg/kg)	Tsed (total sedation time over the period) (Dose: 10 mg/kg)	TS (mins) Placebo diff'ce (Dose: 10 mg/kg)
COc1ccc2[nH]c3c(c2c1)CCn1c-3cnc1-c1ccccc1 [Example 14]	63.5%	7 min	35.5 min	62.865 min	32 min	68%	15 min	34 min	61.2 min	31.5 min	70%	7 min	28 min	63 min	25.5 min
CCn1c2c(c3ccccc31)CCn1c-2cnc1C.CS(=O)(=O)O [Example 15, 11-ethyl-3-methyl-5,6-dihydroimidazo[5,1-a]-β-carboline methane sulfonate]	23.9%	12.5 min	12 min	21.5 min	21 min	45%	7 min	29.5 min	40.5 min	29 min	80%	1 min	70 min	72 min	69.7 min
CS(=O)(=O)O.Cc1ncc2n1CCc1c-2n(C)c2ccc(Cl)cc12 [Example 16, 8-chloro-3,11-dimethyl-5,6-dihydroimidazo-[5,1-a]-β-carboline methane sulfonate]	41%	11.5 min	15 min	37 min	14.7 min	33.9%	13.5 min	20.5 min	30.5 min	20 min	58.3%	7.5 min	31 min	52.5 min	52 min
CCn1c2c(c3cc(Cl)ccc31)CCn1c-2cnc1C.CS(=O)(=O)O [Example 17, 8-chloro-3-methyl-11-ethyl-5,6-dihydro-imidazo[5,1-a]-β-carboline methane sulfonate]	41.1%	12 min	12 min	37 min	11.7 min	33.3%	7.5 min	23.5 min	30 min	23 min	67.2%	5 min	43.5 min	60.5 min	43 min
